The values below are quoted from earlier work in patent US20050244357A1, “Oil-containing emulsifiable formulations containing active agents” (priority 2004, published 2005).

SMILES strings stand for the structures.

The test system of the data set is thrips. Particulars: cotton, applied alone.

Take `CNC(=O)CSP(=S)(OC)OC` [Dimethoate]: the control of thrips entry was “good control”.
